Results reported in ChEMBL document CHEMBL4420062, “Tfpi inhibitors and methods of use” (2013).

Legend:
Plasma [1] = test: Effect on blood coagulation parameters in plasma isolated from hemophilia A patient assessed as clot formation time at 120 nM by rotation thromboelastography (reference value: 1540 secs); assay type: functional, Homo sapiens
Plasma [2] = test: Effect on blood coagulation parameters in plasma isolated from hemophilia A patient assessed as maximum clot firmness at 120 nM by rotation thromboelastography; assay type: functional, Homo sapiens
Plasma [3] = test: Effect on blood coagulation parameters in plasma isolated from hemophilia A patient assessed as clotting time at 40 nM by rotation thromboelastography (reference value: 2907 secs); assay type: functional, Homo sapiens
Plasma [4] = test: Effect on blood coagulation parameters in plasma isolated from hemophilia A patient assessed as clot formation time at 40 nM by rotation thromboelastography (reference value: 1540 secs); assay type: functional, Homo sapiens
Plasma [5] = test: Effect on blood coagulation parameters in plasma isolated from hemophilia A patient at 40 nM by rotation thromboelastography (reference value: 0%); assay type: functional, Homo sapiens
Plasma [6] = test: Effect on blood coagulation parameters in plasma isolated from hemophilia A patient assessed as clotting time at 120 nM by rotation thromboelastography (reference value: 2907 secs); assay type: functional, Homo sapiens
[7] = Stability in mouse plasma assessed as parent compound remaining after 24 hrs; assay type: ADME, cell-free; conditions: read-out: Stability
Plasma [8] = test: (§1) Effect on blood coagulation parameters in plasma isolated from hemophilia A patient assessed as clotting time at […] by rotation thromboelastography (reference value: 2907 secs); assay type: functional, Homo sapiens
Plasma [9] = test: as §1; assay type: functional, Homo sapiens; remark: listed apart in the source
Plasma [10] = test: (§2) Effect on blood coagulation parameters in plasma isolated from hemophilia A patient assessed as clot formation time at […] by rotation thromboelastography (reference value: 1540 secs); assay type: functional, Homo sapiens
Plasma [11] = test: (§3) Effect on blood coagulation parameters in plasma isolated from hemophilia A patient at […] by rotation thromboelastography (reference value: 0%); assay type: functional, Homo sapiens
[12] = Stability in human plasma assessed as parent compound remaining after 24 hrs; assay type: ADME, cell-free; conditions: read-out: Stability
Plasma [13] = test: Effect on blood coagulation parameters in plasma isolated from hemophilia A patient assessed as maximum clot firmness at 40 nM by rotation thromboelastography; assay type: functional, Homo sapiens
Plasma [14] = test: as §3; assay type: functional, Homo sapiens; remark: listed apart in the source
Plasma [15] = test: Effect on blood coagulation parameters in plasma isolated from hemophilia A patient at 120 nM by rotation thromboelastography (reference value: 0%); assay type: functional, Homo sapiens
Plasma [16] = test: as §2; assay type: functional, Homo sapiens; remark: listed apart in the source

For CCN1C(=O)CC(SC[C@H](NC(=O)[C@H](CC(C)C)NC(=O)[C@H](CCCCN)NC(=O)[C@H](C)NC(=O)C(C)(C)NC(=O)[C@H](CC(C)C)NC(=O)[C@H](CCCNC(=N)N)NC(=O)[C@H](CCC(=O)O)NC(=O)[C@H](Cc2ccccc2)NC(=O)[C@H](Cc2ccc(O)cc2)NC(=O)CNC(=O)[C@H](CC(=O)O)NC(=O)[C@@H](NC(=O)[C@H](Cc2cnc[nH]2)NC(=O)[C@@H](NC(=O)[C@H](CC(N)=O)NC(=O)[C@H]2CCCN2C(=O)[C@H](CCCCN)NC(=O)[C@H](CO)NC(=O)[C@H](CCC(N)=O)NC(=O)[C@H](Cc2ccccc2)NC(C)=O)C(C)C)C(C)C)C(N)=O)C1=O (stereo partly specified), the Time (Plasma [1]) was 219 s, the Activity (Plasma [2]) was 64 mm and the Time (Plasma [3]) was 1143 s. The Time (Plasma [4]) was 457 s, the Activity (Plasma [5]) was 119% and the Time (Plasma [6]) was 853 s. For the same molecule, the remaining at 24 h [7] was 10 to 15.9%, the Time (Plasma [8]) was 2249 s and the Time (Plasma [9]) was 2901 s. It also gave a Time (Plasma [10]) of 2488 s, an Activity (Plasma [11]) of 44% and a remaining at 24 h [12] of 10 to 23.8%. It also gave an Activity (Plasma [13]) of 64 mm, an Activity (Plasma [14]) of 0% and an Activity (Plasma [15]) of 139%. For the same molecule, the Time (Plasma [16]) was 1480 s.
